Activity calls are given as the source filed them.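 Rule for the calls: active = viability below 80%, treated as toxic; inactive = the rest.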
Test system: HEK-293 viability, CellTiter-Glo, 3 days
Experiment: HEK-293 cell cytotoxicity, late-stage follow-up, cytotoxicity control for GRK2 aptamer-displacement inhibitor project, powder set 1, set 2 (AID 588540)
Settings: at 20 µM; active compounds read low

SMILES | viability
COc1ccc([N+](=O)[O-])cc1NC(=O)CCS(=O)(=O)c1ccc(Br)cc1 | 118% (inactive)
COC(=O)c1ccccc1NC(=O)CCS(=O)(=O)c1ccc(Br)s1 | 81.6% (inactive)
O=C(O)Cc1ccc(-n2cccc2)cc1 | 125% (inactive)
O=C(CCS(=O)(=O)c1ccc(Br)s1)Nc1ccccc1Br | 71.3%
O=C(CCS(=O)(=O)c1ccc(Br)cc1)Nc1ccc(Br)cc1F | 116% (inactive)
CCOc1ccc(NC(=O)CCS(=O)(=O)c2ccc(Br)cc2)cc1 | 108% (inactive)
O=C(CSc1nc2ccccc2c(=O)n1-c1ccccc1)NC(=O)CN1CCCC1=O | 116% (inactive)
CCN(CC)c1ccc(NC(=O)CCS(=O)(=O)c2ccc(Br)cc2)c(C)c1 | 97.3% (inactive)
COc1ccc(Cl)cc1NC(=O)CCS(=O)(=O)c1ccc(Br)cc1 | 106% (inactive)
CCOc1ccccc1NC(=O)CCS(=O)(=O)c1ccc(Br)cc1 | 79.5% (inactive)
Cc1cccc(CCNC(=O)CCS(=O)(=O)c2ccc(Br)cc2)c1 | 129% (inactive)
O=C(CN1CCc2ccccc21)NC(=O)NCc1ccccc1 | 56.1%
CC(=O)N1CCN(Cc2nc3cc(Cl)ccc3c(=O)[nH]2)CC1 | 124% (inactive)
Cc1ccccc1NC(=O)CCS(=O)(=O)c1ccc(Br)s1 | 94.2% (inactive)
C#CCSc1nc2sc3c(c2c(=O)n1C)CCC3 | 92.8% (inactive)
COc1ccc(NC(=O)CCS(=O)(=O)c2ccc(Br)s2)cc1 | 86.8% (inactive)
NS(=O)(=O)c1ccc(CCNC(=O)CCS(=O)(=O)c2ccc(Br)cc2)cc1 | 124% (inactive)
CC(CS(=O)(=O)c1ccc2c(c1)NC(=O)CS2)C(=O)NCc1ccccc1Cl (stereo not drawn) | 119% (inactive)
COc1ccc(CCNC(=O)CCS(=O)(=O)c2ccc(Br)cc2)cc1OC | 120% (inactive)
Cc1cc2ccccc2n1CCNC(=O)C(C)Oc1ccccc1 (stereo not drawn) | 68.6%
COC(=O)c1ccc(NC(=O)CCS(=O)(=O)c2ccc(Br)cc2)cc1 | 126% (inactive)
O=C(CCS(=O)(=O)c1ccc(Br)cc1)NCc1cccs1 | 131% (inactive)
Cc1ccc(CCNC(=O)CCS(=O)(=O)c2ccc(Br)cc2)cc1 | 126% (inactive)

— PubChem BioAssay AID588540 (NMMLSC, 2011)
